Laboratory results reported in US20140081017A1, “Histone Deacetylase Inhibitors for Enhancing Activity of Antifungal Agents” (METHYLGENE INC., priority 2012, published 2014).
In brackets after ≈: the same amount, converted by molar mass.

Tested on: C. glabrata
Experiment: Checkerboard FIC assay in combination with fluconazole (MIC alone and in combination, FICI)
Assay type: cell-based, Candida glabrata
Conditions: C. glabrata; FICI calculated using a fluconazole MIC of 16 μg/mL
Protocol: The ability of the compounds to synergize with azoles against C. glabrata was evaluated by the checkerboard assay, a common laboratory method used to evaluate synergy, antagonism, and indifference using fractional inhibitory concentrations (FICs) and FIC indices (FICI).
The test compounds were supplied as a powder and dissolved in dimethylsulfoxide (DMSO) on the day of assay. Stock solutions were prepared at 640 ug/mL. Fluconazole was dissolved in deionized water to a stock concentration of 320 ug/mL. All test articles were in solution under these conditions.
(§1) The test organisms and reference isolates were streaked for isolation on Sabouraud agar medium (yeasts) or potato dextrose agar (fungi). Colonies were picked by swab from the medium and resuspended in the appropriate broth containing cryoprotectant. The suspensions were aliquoted into cryogenic vials and maintained at −80° C.
(§2) Prior to testing, the yeast isolates were streaked from the frozen vials onto Sabouraud dextrose agar. The plates were incubated overnight at 35° C. The fungal isolate was grown on potato dextrose agar slants and was incubated for 7-10 days at room temperature.
(§3) Both yeast and fungal isolates were tested in RPMI medium buffered with 0.165 M MOPS (3-(N-morpholino)propanesulfonic acid). The pH of the medium was adjusted to 7.0 with 1 N NaOH. The medium was sterile filtered using a 0.2 um PES (polyethersulfone) filter and stored at 4° C. until used.
FIC values were determined using a broth microdilution method (CLSI; 1, 3). To prepare the test plates, automated liquid handlers (Multidrop 384, Labsystems, Helsinki, Finland; Biomek 2000 and Biomek FX, Beckman Coulter, Fullerton Calif.) were used to conduct serial dilutions and liquid transfers.
The wells of standard 96-well microdilution plates (Costar 3795) were filled with 150 uL of DMSO in columns 2-12. Three hundred microliters of each test compound was added to each well in Column 1 of the plates. The Biomek 2000 was used to make eleven 2-fold serial dilutions in each of these “test compound mother” plates. The wells of the “fluconazole mother plates” were filled with 150 uL of sterile water in rows B-H. Row A of these plates was filled with 300 uL of the fluconazole stock solution. Serial 2-fold dilutions were then prepared from top to bottom by hand, using a multichannel pipette in rows B-G. The “daughter plates” were loaded with 180 uL of RPMI using the Multidrop 384. The Biomek FX was used to transfer 5 uL of compound solution from each well of a fluconazole mother plate to the corresponding well in all of the daughter plates in a single step. Then the Biomek FX was used to transfer 5 uL of compound solution from each well of a test compound mother plate to the corresponding well of the corresponding test compound daughter plate (already containing fluconazole at the appropriate concentrations) in a single step. Row H and Column 12 each contained serial dilutions of the test agent and fluconazole alone, respectively, for determination of the MIC.
Standardized inoculum of each organism was prepared per CLSI methods (CLSI; 1, 3). For yeast isolates, colonies were picked from the primary plate and a suspension was prepared in 0.85% saline to equal a 0.5 McFarland turbidity standard. For the fungal isolate, 1 mL of 0.85% saline was dispensed onto a potato dextrose agar slant onto which the isolate had been inoculated 7-10 days previously. Using a swab, a suspension of the fungus was made. After a short time to allow the heavy particles to settle out, a small quantity of the supernatant was dispensed into 0.85% saline and the suspension was adjusted to equal a 0.5 McFarland turbidity standard. Both yeast and fungal isolates were diluted 1:100 in RPMI and then transferred to compartments of sterile reservoirs divided by length (Beckman Coulter). The Biomek 2000 was used to inoculate the plates. […]

| Compound | FICI of combination resulting in fluconazole MIC of: 2 ug/mL | FICI of combination resulting in fluconazole MIC of: 4 ug/mL | FICI of combination resulting in fluconazole MIC of: 8 ug/mL |
| --- | --- | --- | --- |
| Cn1ccc2cc(CCCCc3ccc(CC(=O)NO)cc3)ccc21 [Example 6, N-hydroxy-2-(4-(4-(1-methyl-1H-indol-5-yl)butyl)phenyl) acetamide] | 0.313 | 0.245 | 0.370 |

Same assay, conditions: C. glabrata; FICI using a fluconazole MIC of 128 μg/mL

| Compound | FICI of combination resulting in fluconazole MIC of: 2 ug/mL (value in parenthesis) | FICI of combination resulting in fluconazole MIC of: 4 ug/mL (value in parenthesis) | FICI of combination resulting in fluconazole MIC of: 8 ug/mL (value in parenthesis) |
| --- | --- | --- | --- |
| Cn1ccc2cc(CCCCc3ccc(CC(=O)NO)cc3)ccc21 [Example 6, N-hydroxy-2-(4-(4-(1-methyl-1H-indol-5-yl)butyl)phenyl) acetamide] | 0.266 | 0.151 | 0.183 |

Same assay, conditions: Nakaseomyces glabratus; MIC of the example compound alone against C. glabrata in the checkerboard assay, approximately 48 hr; read-out: Methylgene MIC

| Compound | MIC [µg/mL] |
| --- | --- |
| Cn1ccc2cc(CCCCc3ccc(CC(=O)NO)cc3)ccc21 [Example 6, N-hydroxy-2-(4-(4-(1-methyl-1H-indol-5-yl)butyl)phenyl) acetamide] | 1 |

Same assay, conditions: Nakaseomyces glabratus; test compound alone, C. glabrata, approx. 48 hr at 35° C.; read-out: Compound MIC

| Compound | MIC [µg/mL] |
| --- | --- |
| Cn1ccc2cc(CCCCc3ccc(CC(=O)NO)cc3)ccc21 [Example 6, N-hydroxy-2-(4-(4-(1-methyl-1H-indol-5-yl)butyl)phenyl) acetamide] | 1 |

Same assay, conditions: concentration in combination as multiple of the compound's MIC alone; fluconazole MIC 2 ug/mL

| Compound | Multiple of compound MIC to synergize fluconazole MIC to 2 ug/mL |
| --- | --- |
| Cn1ccc2cc(CCCCc3ccc(CC(=O)NO)cc3)ccc21 [Example 6, N-hydroxy-2-(4-(4-(1-methyl-1H-indol-5-yl)butyl)phenyl) acetamide] | (¼x) |

Same assay, conditions: concentration in combination as multiple of the compound's MIC alone; fluconazole MIC 4 ug/mL

| Compound | Multiple of compound MIC to synergize fluconazole MIC to 4 ug/mL |
| --- | --- |
| Cn1ccc2cc(CCCCc3ccc(CC(=O)NO)cc3)ccc21 [Example 6, N-hydroxy-2-(4-(4-(1-methyl-1H-indol-5-yl)butyl)phenyl) acetamide] | (⅛x) |

Same assay, conditions: concentration in combination as multiple of the compound's MIC alone; fluconazole MIC 8 ug/mL

| Compound | Multiple of compound MIC to synergize fluconazole MIC to 8 ug/mL |
| --- | --- |
| Cn1ccc2cc(CCCCc3ccc(CC(=O)NO)cc3)ccc21 [Example 6, N-hydroxy-2-(4-(4-(1-methyl-1H-indol-5-yl)butyl)phenyl) acetamide] | (⅛x) |

Same assay, conditions: in combination with fluconazole, C. glabrata; fluconazole MIC lowered to 2 ug/mL

| Compound | Concentration of Methylgene compound to synergize fluconazole MIC to 2 ug/mL [µg/mL] |
| --- | --- |
| Cn1ccc2cc(CCCCc3ccc(CC(=O)NO)cc3)ccc21 [Example 6, N-hydroxy-2-(4-(4-(1-methyl-1H-indol-5-yl)butyl)phenyl) acetamide] | 0.25 |

Same assay, conditions: in combination with fluconazole, C. glabrata; fluconazole MIC lowered to 4 ug/mL

| Compound | Concentration of Methylgene compound to synergize fluconazole MIC to 4 ug/mL [µg/mL] |
| --- | --- |
| Cn1ccc2cc(CCCCc3ccc(CC(=O)NO)cc3)ccc21 [Example 6, N-hydroxy-2-(4-(4-(1-methyl-1H-indol-5-yl)butyl)phenyl) acetamide] | 0.12 |

Same assay, conditions: in combination with fluconazole, C. glabrata; fluconazole MIC lowered to 8 ug/mL

| Compound | Concentration of Methylgene compound to synergize fluconazole MIC to 8 ug/mL [µg/mL] |
| --- | --- |
| Cn1ccc2cc(CCCCc3ccc(CC(=O)NO)cc3)ccc21 [Example 6, N-hydroxy-2-(4-(4-(1-methyl-1H-indol-5-yl)butyl)phenyl) acetamide] | 0.12 |

Tested on: Candida glabrata
Experiment: Minimal Inhibitory Concentration (MIC) assay, broth microdilution per CLSI;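 note: two read times 24 hr and 48 hr of incubation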
Assay type: cell-based
Conditions: Nakaseomyces glabratus; 24 hr reading (first value of cell 24 hr/48 hr); read-out: Minimum Inhibitory Concentrations against Yeast Isolates, Candida glabrata
Protocol: (§4) The in vitro activities of the inventive compounds (compound(s) herein) against fungi and/or yeasts were determined with isolates Candida albicans, Candida glabrata and Candida parapsilosis. The comparator compounds included fluconazole, caspofungin and amphotericin B.
(§5) The compounds were supplied as a powder, and were dissolved in dimethylsulfoxide (DMSO) the day of assay. Stock solutions were prepared at 10 mg/mL and diluted to a starting stock concentration of 2.56 mg/mL. Amphotericin B was dissolved in DMSO to a stock concentration of 2.56 mg/mL. Fluconazole was dissolved in deionized water to a stock concentration of 2.56 mg/mL. Caspofungin was received as a stock solution of 3.2 mg/mL in DMSO and was diluted to a starting stock concentration of 2.56 mg/mL.
as §1, §2, §3
(§6) The MIC assay method followed the procedure described by the Clinical and Laboratory Standards Institute (CLSI; 1, 2, 3) and employed automated liquid handlers to conduct serial dilutions and liquid transfers. Automated liquid handlers included the Multidrop 384 (Labsystems, Helsinki, Finland), Biomek 2000 and Biomek FX (Beckman Coulter, Fullerton Calif.). The wells in columns 2-12 in standard 96-well microdilution plates (Costar 3795) were filled with 150 ul of 100% DMSO. These would become the ‘mother plates’ from which ‘daughter’ or test plates would be prepared. The compounds (300 uL at 40× the desired top concentration in the test plates) were dispensed into the appropriate well in Column 1 of the mother plates. The Biomek 2000 was used to make serial 1:1 dilutions through Column 11 in the “mother plate”. The wells of Column 12 contained no compounds and were the organism growth control wells.
(§7) The daughter plates were loaded with 185 uL per well of RPMI described above using the Multidrop 384. The daughter plates were prepared using the Biomek FX which transferred 5 μL of the compound solution from each well of a mother plate to the corresponding well of the daughter plate in a single step.
(§8) Standardized inoculum of each organism was prepared per CLSI methods. For yeast isolates, colonies were picked from the streak plate and a suspension was prepared in 0.85% saline. For the fungal isolate, 1 mL of 0.85% saline was dispensed onto the potato dextrose agar slant that had been inoculated 7-10 days previously. Using a swab, a suspension of the fungus was made. After a short time to allow the heavy particles to settle out, a small quantity of the supernatant was dispensed into 0.85% saline and the suspension adjusted to equal a 0.5 McFarland turbidity standard. Both yeast and fungal isolates were diluted 1:100 in RPMI and then transferred to compartments of sterile reservoirs divided by length (Beckman Coulter). The Biomek 2000 was used to inoculate the plates. Daughter plates were placed on the Biomek 2000 work surface reversed so that inoculation took place from low to high compound concentration. The Biomek 2000 delivered 10 μL of standardized inoculum into each well. Thus, the wells of the daughter plates ultimately contained 185 uL of RPMI, 5 uL of the compound solution, and 10 uL of inoculum. […]

| Compound | MIC [µg/mL] |
| --- | --- |
| Cn1ccc2cc(CCCCc3ccc(CC(=O)NO)cc3)ccc21 [Example 6, N-hydroxy-2-(4-(4-(1-methyl-1H-indol-5-yl)butyl)phenyl) acetamide] | 0.25 (≈ 0.743 µM) |

Same assay, conditions: Nakaseomyces glabratus; 48 hr reading (second value of cell 24 hr/48 hr); read-out: Minimum Inhibitory Concentrations against Yeast Isolates, Candida glabrata

| Compound | MIC [µg/mL] |
| --- | --- |
| Cn1ccc2cc(CCCCc3ccc(CC(=O)NO)cc3)ccc21 [Example 6, N-hydroxy-2-(4-(4-(1-methyl-1H-indol-5-yl)butyl)phenyl) acetamide] | 0.5 (≈ 1.49 µM) |

Tested on: Candida albicans
Experiment: as above
Assay type: cell-based
Conditions: Candida albicans; 24 hr reading (first value of cell 24 hr/48 hr); read-out: Minimum Inhibitory Concentrations against Yeast Isolates, Candida albicans
Protocol: as §4, §5, §1, §2, §3, §6, §7, §8

| Compound | MIC [µg/mL] |
| --- | --- |
| Cn1ccc2cc(CCCCc3ccc(CC(=O)NO)cc3)ccc21 [Example 6, N-hydroxy-2-(4-(4-(1-methyl-1H-indol-5-yl)butyl)phenyl) acetamide] | 0.5 (≈ 1.49 µM) |

Same assay, conditions: Candida albicans; 48 hr reading (second value of cell 24 hr/48 hr); read-out: Minimum Inhibitory Concentrations against Yeast Isolates, Candida albicans

| Compound | MIC [µg/mL] |
| --- | --- |
| Cn1ccc2cc(CCCCc3ccc(CC(=O)NO)cc3)ccc21 [Example 6, N-hydroxy-2-(4-(4-(1-methyl-1H-indol-5-yl)butyl)phenyl) acetamide] | 0.5 (≈ 1.49 µM) |

Tested on: Candida parapsilosis
Experiment: as above
Assay type: cell-based
Conditions: Lodderomyces parapsilosis; 24 hr reading (first value of cell 24 hr/48 hr); read-out: Minimum Inhibitory Concentrations against Yeast Isolates, Candida parapsilosis
Protocol: as §4, §5, §1, §2, §3, §6, §7, §8

| Compound | MIC [µg/mL] |
| --- | --- |
| Cn1ccc2cc(CCCCc3ccc(CC(=O)NO)cc3)ccc21 [Example 6, N-hydroxy-2-(4-(4-(1-methyl-1H-indol-5-yl)butyl)phenyl) acetamide] | > 4 |

Same assay, conditions: Lodderomyces parapsilosis; 48 hr reading (second value of cell 24 hr/48 hr); read-out: Minimum Inhibitory Concentrations against Yeast Isolates, Candida parapsilosis

| Compound | MIC [µg/mL] |
| --- | --- |
| Cn1ccc2cc(CCCCc3ccc(CC(=O)NO)cc3)ccc21 [Example 6, N-hydroxy-2-(4-(4-(1-methyl-1H-indol-5-yl)butyl)phenyl) acetamide] | > 4 |
